Data published in the Bradley open melting point set (2014).

SMILES | melting point
COc1ccc([C@@H]2CC(=O)c3c(O)cc(O)cc3O2)cc1O [3',5,7-trihydroxy-4'-methoxyflavanone] | 230 °C
Cc1ccc2oc(-c3cccc(O)c3)cc(=O)c2c1 [3'-hydroxy-6-methylflavone] | 205 °C
CC(=O)c1cccc(O)c1 [3'-hydroxyacetophenone] | 95 °C
O=C1CC(c2cccc(O)c2)Oc2ccccc21 (stereo not given) [3'-hydroxyflavanone] | 140 °C
O=C(O)c1ccc(-c2cccc([N+](=O)[O-])c2)cc1 [3'-nitrobiphenyl-4-carboxylic acid] | 314 °C
Cc1cc(C)cc(-c2cc(C)cc(C)c2)c1 [3,3',5,5'-tetramethylbiphenyl] | 48 °C
COC1(OC)CCC2(C)C3CCC4(C)CCCC4(O)C3CCC2(C)C1 (stereo not given) [3,3-dimethoxy-5-methylandrostan-14-ol] | 147 °C
COC1(OC)CCC2(C)C(CCC3C4CCCC4(C)CCC32)C1 (stereo not given) [3,3-dimethoxyandrostane] | 80 °C
O=C1CCC2CCc3ccccc3C2O1 (stereo not given) [3,4,4a,5,6,10b-hexahydro-2H-benzo[h]chromen-2-one] | 139 °C
Brc1n[nH]c(Br)c1Br [3,4,5-tribromo-1h-pyrazole] | 186 °C
OB(O)c1cc(F)c(F)c(F)c1 [3,4,5-trifluorobenzeneboronic acid] | 277 °C
O=[N+]([O-])c1ccc(Cl)c(Cl)c1 [3,4-Dichloronitrobenzene] | 41.3 °C
COc1ccc(C(=O)O)cc1OC [3,4-Dimethoxybenzoic acid] | 181 °C
Brc1cscc1Br [3,4-dibromothiophene] | 5 °C
OB(O)c1ccc(Cl)c(Cl)c1 [3,4-dichlorobenzeneboronic acid] | 272 °C
O=C(O)c1ccc(Cl)c(Cl)c1 [3,4-dichlorobenzoic_acid] | 208 °C
FC(F)(F)c1ccc(Cl)c(Cl)c1 [3,4-dichlorobenzotrifluoride] | -12 °C
Cc1ccc(Cl)c(Cl)c1 [3,4-dichlorotoluene] | -15 °C

SMILES | melting point
O=C(O)c1ccc(F)c(F)c1 [3,4-difluorobenzoic acid] | 123 °C
O=C(O)c1ccc2c(c1)OCCCO2 [3,4-dihydro-2h-1,5-benzodioxepin-7-carboxylic acid] | 148 °C
O=Cc1ccc(O)c(O)c1 [3,4-dihydroxybenzaldehyde] | 155 °C
COc1c(OC)c(=O)c1=O [3,4-dimethoxy-3-cyclobutene-1,2-dione] | 55 °C
COc1ccc(/C=C/C(=O)c2ccccc2)cc1OC [3,4-dimethoxychalcone] | 89 °C
COc1ccc(O)cc1OC [3,4-dimethoxyphenol] | 83 °C
COc1ccc(CC#N)cc1OC [3,4-dimethoxyphenylacetonitrile] | 64 °C
COc1ccc(C)cc1OC [3,4-dimethoxytoluene] | 27 °C
Cc1ccc(C#N)cc1C [3,4-dimethylbenzonitrile] | 66 °C
Cc1ccc(S)c(S)c1 [3,4-toluenedithiol] | 30 °C
CC(C)(C)C1=CC(=O)C(=O)C(C(C)(C)C)=C1 [3,5-Di-tert-butyl-1,2-benzoquinone] | 114 °C
CC(C)(C)c1cc(C(=S)NC2CCCCC2)cc(C(C)(C)C)c1O [3,5-Di-tert-butyl-N-cyclohexyl-4-hydroxy-thiobenzamide] | 228 °C
OB(O)c1cc(C(F)(F)F)cc(C(F)(F)F)c1 [3,5-bis(trifluoromethyl)benzeneboronic acid] | 222 °C
CC(C)(C)c1cc(C#N)cc(C(C)(C)C)c1O [3,5-di-tert-butyl-4-hydroxybenzonitrile] | 142 °C
CC(C)(C)C1=CC(=O)C(=O)C(C(C)(C)C)=C1 [3,5-di-tert-butyl-o-benzoquinone] | 115 °C
COc1cc(Cl)cc(Cl)c1 [3,5-dichloroanisole] | 41 °C
NC(=O)c1cc(Cl)cc(Cl)c1 [3,5-dichlorobenzamide] | 160 °C
